In PubChem BioAssay (NCI):
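A five-concentration, 48-hour dose response in 96-well plates underlies each endpoint, interpolated linearly between surrounding concentrations. At the TGI there is no net growth.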

Experiments:
Test in all cases: NCI tumour cell line growth inhibition, 48 h
[1] = tested on: K-562 leukemia
[2] = tested on: HT29 colon
[3] = tested on: SNB-19 CNS
[4] = tested on: HOP-62 NSCLC
[5] = tested on: KM12 colon
[6] = tested on: HS 578T breast
[7] = tested on: SN12C renal
[8] = tested on: MDA-N
[9] = tested on: NCI/ADR-RES ovarian
[10] = tested on: NCI-H226 lung
[11] = tested on: NCI-H23 lung
[12] = tested on: HOP-92 NSCLC
[13] = tested on: SK-MEL-2 melanoma
[14] = tested on: 786-0 renal
[15] = tested on: UACC-257 melanoma
[16] = tested on: CAKI-1 renal
[17] = tested on: LOX IMVI melanoma
[18] = tested on: MALME-3M melanoma
[19] = tested on: OVCAR-3 ovarian
[20] = tested on: HCC-2998 colon
[21] = tested on: MCF7 breast
[22] = tested on: OVCAR-8 ovarian
[23] = tested on: SK-OV-3 ovarian
[24] = tested on: SF-295 CNS
[25] = tested on: U251 CNS
[26] = tested on: A549 NSCLC
[27] = tested on: PC-3 prostate
[28] = tested on: OVCAR-4 ovarian
[29] = tested on: NCI-H460 lung
[30] = tested on: MDA-MB-231 breast
[31] = tested on: OVCAR-5 ovarian
[32] = tested on: RPMI-8226 leukemia
[33] = tested on: COLO 205 colon
[34] = tested on: M14 melanoma
[35] = tested on: UACC-62 melanoma
[36] = tested on: UO-31 renal
[37] = tested on: HCT-116 colon
[38] = tested on: EKVX NSCLC
[39] = tested on: MDA-MB-435
[40] = tested on: A498 renal
[41] = tested on: SF-268 CNS
[42] = tested on: SK-MEL-28 melanoma
[43] = tested on: NCI-H522 lung
[44] = tested on: HCT-15 colon
[45] = tested on: ACHN renal
[46] = tested on: SNB-75 CNS
[47] = tested on: SK-MEL-5 melanoma
[48] = tested on: TK-10 renal
[49] = tested on: DU-145 prostate
[50] = tested on: BT-549 breast
[51] = tested on: IGROV1 ovarian
[52] = tested on: T-47D breast
[53] = tested on: HL-60(TB) leukemia
[54] = tested on: RXF 393 renal
[55] = tested on: SW-620 colon
[56] = tested on: SF-539 CNS
[57] = tested on: CCRF-CEM leukemia

## COc1ccc2c(c1)c(=O)c1c(NCCN(C)C)ccc3c(=O)n(CCN(C)C)c(=O)n2c31
[1]
  TGI: 0.0354 µM
[2]
  TGI: 1.39 µM
[3]
  TGI: 4.3 µM
[4]
  TGI: 1.78 µM
[5]
  TGI: 0.659 µM
[6]
  TGI: 0.841 µM
[7]
  TGI: 0.594 µM
[8]
  TGI: 0.254 µM
[9]
  TGI: 3.63 µM
[10]
  TGI: 0.892 µM
[11]
  TGI: 0.315 µM
[12]
  TGI: 0.791 µM
[13]
  TGI: 0.415 µM
[14]
  TGI: 0.87 µM
[15]
  TGI: 0.804 µM
[16]
  TGI: 0.599 µM
[17]
  TGI: 1.22 µM
[18]
  TGI: 1.02 µM
[19]
  TGI: 2.11 µM
[20]
  TGI: 0.569 µM
[21]
  TGI: 4.75 µM
[22]
  TGI: 3.1 µM
[23]
  TGI: 11.9 µM
[24]
  TGI: 12 µM
[25]
  TGI: 2.29 µM
[26]
  TGI: 10.2 µM
[27]
  TGI: 0.816 µM
[28]
  TGI: 1.7 µM
[29]
  TGI: 1.46 µM
[30]
  TGI: 0.855 µM
[31]
  TGI: 12.6 µM
[32]
  TGI: 0.3 µM
[33]
  TGI: 0.247 µM
[34]
  TGI: 0.835 µM
[35]
  TGI: 0.984 µM
[36]
  TGI: 1.03 µM
[37]
  TGI: 1.06 µM
[38]
  TGI: 1.31 µM
[39]
  TGI: 0.538 µM
[40]
  TGI: 1.35 µM
[41]
  TGI: 2.13 µM
[42]
  TGI: 3.71 µM
[43]
  TGI: 0.31 µM
[44]
  TGI: 2.62 µM
[45]
  TGI: 3.85 µM
[46]
  TGI: 0.719 µM
[47]
  TGI: 0.594 µM
[48]
  TGI: 3.45 µM
[49]
  TGI: 1.23 µM
[50]
  TGI: 3.22 µM
[51]
  TGI: 1.2 µM
[52]
  TGI: 5.77 µM
[53]
  TGI: 0.569 µM

## O=C(CON1C(=O)c2ccccc2C1=O)c1ccccc1
[1]
  TGI: > 100 µM
[2]
  TGI: > 100 µM
[3]
  TGI: > 100 µM
[4]
  TGI: > 100 µM
[54]
  TGI: > 100 µM
[5]
  TGI: > 100 µM
[6]
  TGI: > 100 µM
[7]
  TGI: > 100 µM
[8]
  TGI: > 100 µM
[9]
  TGI: > 100 µM
[10]
  TGI: > 100 µM
[11]
  TGI: > 100 µM
[12]
  TGI: > 100 µM
[13]
  TGI: > 100 µM
[14]
  TGI: > 100 µM
[15]
  TGI: > 100 µM
[16]
  TGI: 34.8 µM
[17]
  TGI: > 100 µM
[18]
  TGI: 56.9 µM
[19]
  TGI: > 100 µM
[21]
  TGI: > 100 µM
[22]
  TGI: > 100 µM
[23]
  TGI: > 100 µM
[24]
  TGI: > 100 µM
[25]
  TGI: > 100 µM
[26]
  TGI: > 100 µM
[27]
  TGI: > 100 µM
[28]
  TGI: > 100 µM
[29]
  TGI: > 100 µM
[30]
  TGI: > 100 µM
[55]
  TGI: 69.1 µM
[31]
  TGI: > 100 µM
[32]
  TGI: 40.4 µM
[56]
  TGI: > 100 µM
[33]
  TGI: > 100 µM
[34]
  TGI: > 100 µM
[35]
  TGI: > 100 µM
[36]
  TGI: 40.7 µM
[37]
  TGI: > 100 µM
[38]
  TGI: > 100 µM
[39]
  TGI: > 100 µM
[40]
  TGI: > 100 µM
[41]
  TGI: > 100 µM
[42]
  TGI: > 100 µM
[43]
  TGI: 36.6 µM
[44]
  TGI: > 100 µM
[45]
  TGI: > 100 µM
[46]
  TGI: > 100 µM
[47]
  TGI: > 100 µM
[48]
  TGI: 55 µM
[49]
  TGI: > 100 µM
[50]
  TGI: > 100 µM
[51]
  TGI: > 100 µM
[52]
  TGI: 52.6 µM

## CC(=O)SSC1(Cl)C(C)(C)C(Cl)(SSC(C)=O)C1(C)C (stereo not given)
[2]
  TGI: > 100 µM
[3]
  TGI: > 100 µM
[4]
  TGI: > 100 µM
[54]
  TGI: 48.5 µM
[5]
  TGI: > 100 µM
[6]
  TGI: > 100 µM
[7]
  TGI: > 100 µM
[8]
  TGI: > 100 µM
[9]
  TGI: > 100 µM
[10]
  TGI: > 100 µM
[11]
  TGI: > 100 µM
[12]
  TGI: > 100 µM
[13]
  TGI: > 100 µM
[14]
  TGI: > 100 µM
[15]
  TGI: > 100 µM
[16]
  TGI: > 100 µM
[17]
  TGI: > 100 µM
[18]
  TGI: > 100 µM
[19]
  TGI: > 100 µM
[21]
  TGI: > 100 µM
[22]
  TGI: > 100 µM
[23]
  TGI: > 100 µM
[24]
  TGI: > 100 µM
[25]
  TGI: > 100 µM
[26]
  TGI: > 100 µM
[27]
  TGI: > 100 µM
[28]
  TGI: > 100 µM
[29]
  TGI: 82.9 µM
[30]
  TGI: > 100 µM
[55]
  TGI: > 100 µM
[31]
  TGI: > 100 µM
[56]
  TGI: 61.5 µM
[33]
  TGI: > 100 µM
[34]
  TGI: > 100 µM
[35]
  TGI: > 100 µM
[36]
  TGI: > 100 µM
[37]
  TGI: > 100 µM
[38]
  TGI: > 100 µM
[39]
  TGI: > 100 µM
[40]
  TGI: > 100 µM
[41]
  TGI: > 100 µM
[42]
  TGI: > 100 µM
[43]
  TGI: > 100 µM
[44]
  TGI: > 100 µM
[45]
  TGI: > 100 µM
[46]
  TGI: 82.5 µM
[47]
  TGI: > 100 µM
[48]
  TGI: > 100 µM
[49]
  TGI: > 100 µM
[57]
  TGI: 60.2 µM
[50]
  TGI: > 100 µM
[51]
  TGI: > 100 µM
[52]
  TGI: 51.7 µM
